Test systems include A498 renal; HS 578T breast; MDA-MB-435; PC-3 prostate; HCT-15 colon; RXF 393 renal; MOLT-4 leukemia; TK-10 renal; UACC-257 melanoma; RPMI-8226 leukemia.
What all share (assay): inhibition of tumour cell growth, NCI panel, 48 h

SMILES strings stand for the structures.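 Five compound concentrations were applied to cells in 96-well plates for 48 hours; endpoints were derived by simple linear interpolation of the resulting dose-response curve. GI50 = concentration required for 50% inhibition of growth. TGI: total growth inhibition.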 A value given as a limit tells only on which side of the number the result lay.

Turning to `O=C(CI)Nc1ccc(Br)cc1`, the GI50 with A498 renal is 16300 nM; in the test on HS 578T breast, 5050 nM; with MDA-MB-435, 2040 nM; in the test with PC-3 prostate it was 2430 nM; in the test with HCT-15 colon, 2090 nM; with RXF 393 renal, 1700 nM. For the same compound, the GI50 in the test with MOLT-4 leukemia was 3.43 µM; in the test with TK-10 renal, 1.92 µM; in the test with UACC-257 melanoma, 2050 nM. Also, the TGI in the test with A498 renal was 33.1 µM; in the test on HS 578T breast, above 100 µM; with MDA-MB-435, 4.7 µM; in the test on PC-3 prostate it was 6.22 µM; in the test with HCT-15 colon, 5.13 µM; with RXF 393 renal it was 3.21 µM. Moreover, the TGI is above 100 µM with MOLT-4 leukemia, 3.63 µM in the test on TK-10 renal and 4.66 µM in the test on UACC-257 melanoma.

`Cn1c(I)c(C#C[Si](C)(C)C)c(=O)[nH]c1=O`: the GI50 in the test on A498 renal is 16400 nM; in the test with HS 578T breast, 2300 nM; with MDA-MB-435, 3100 nM; in the test on HCT-15 colon it was 1830 nM; with RPMI-8226 leukemia it was 1.64 µM; in the test on RXF 393 renal, 639 nM. The GI50 in the test with MOLT-4 leukemia is 2.54 µM; in the test with TK-10 renal, 7.93 µM; in the test on UACC-257 melanoma, 236 nM. Also, the TGI in the test with A498 renal is 30.2 µM; in the test with HS 578T breast, 7.08 µM; in the test on MDA-MB-435, 11.5 µM; with HCT-15 colon it was 3.64 µM; in the test with RPMI-8226 leukemia, 4.28 µM; in the test with RXF 393 renal, 1.74 µM. In addition, the TGI with MOLT-4 leukemia worked out at 5.76 µM; with TK-10 renal, 22.8 µM; in the test with UACC-257 melanoma, 3.85 µM.

On to `C[C@]12CCC(=O)C[C@@H]1CC[C@@H]1[C@@H]2CC[C@]2(C)[C@@H](OC(=O)N(CCCl)N=O)CC[C@@H]12`, for which the GI50 in the test on A498 renal was 1820 nM; in the test with HS 578T breast it was 2130 nM; in the test with MDA-MB-435 it was 1070 nM; in the test on PC-3 prostate it was 1100 nM; in the test with HCT-15 colon it was 2260 nM; in the test with RPMI-8226 leukemia it was 2.02 µM. The GI50 with MOLT-4 leukemia is 0.145 µM; in the test with TK-10 renal it was 3.85 µM; in the test on UACC-257 melanoma, 1140 nM. Besides, the TGI in the test with A498 renal is 4.98 µM; in the test with HS 578T breast it was 16.9 µM; in the test with MDA-MB-435, 18.1 µM; in the test on HCT-15 colon it was 14 µM; with RPMI-8226 leukemia, 6.89 µM; in the test on MOLT-4 leukemia, above 41.6 µM. Besides, the TGI worked out at 27.7 µM in the test on TK-10 renal and 8.58 µM in the test on UACC-257 melanoma.

On to `O=C1/C(=C/c2ccc(C(F)(F)F)cc2)COc2ccc(O)c(O)c21`, for which the GI50 with A498 renal was 2110 nM; in the test on HS 578T breast, 2200 nM; with MDA-MB-435 it was 1260 nM; in the test with HCT-15 colon, 444 nM; in the test with RPMI-8226 leukemia, 0.238 µM; in the test with RXF 393 renal, 1600 nM. The GI50 was 1.64 µM in the test with TK-10 renal and 1580 nM with UACC-257 melanoma. For the same compound, the TGI in the test on A498 renal came to 4.16 µM; in the test on HS 578T breast, 6.02 µM; in the test on MDA-MB-435 it was 2.68 µM; in the test with HCT-15 colon, 1.93 µM; with RPMI-8226 leukemia, 0.607 µM; with RXF 393 renal, 3.05 µM. In addition, the TGI in the test with TK-10 renal was 3.03 µM; in the test with UACC-257 melanoma, 3.46 µM.

`COC(=O)c1cc2cc(/C=C3/SC(=S)N(N(C(C)=O)C(C)=O)C3=O)oc2n1Cc1ccccc1`: the GI50 is 24200 nM in the test on HS 578T breast; 29000 nM with MDA-MB-435; 37800 nM with PC-3 prostate; 15000 nM with HCT-15 colon; 29.4 µM with RPMI-8226 leukemia; 22000 nM with RXF 393 renal. Also, the GI50 with MOLT-4 leukemia was 59.9 µM; in the test with TK-10 renal it was 17.4 µM; in the test on UACC-257 melanoma, 25000 nM. The TGI in the test on HS 578T breast is 76.6 µM; in the test on MDA-MB-435 it was above 100 µM; in the test with PC-3 prostate, above 100 µM; in the test with HCT-15 colon it was 52.1 µM; in the test on RPMI-8226 leukemia, above 100 µM; in the test on RXF 393 renal it was 56.7 µM. Further, the TGI was above 100 µM in the test on MOLT-4 leukemia, 35.1 µM in the test with TK-10 renal and 74.9 µM in the test on UACC-257 melanoma.

For the compound `CCOCCOCCOCCOCCOCCOCCOCCOCCOCCO` (tested in a mixture with another compound), the GI50 is 1080 nM in the test on A498 renal; 1810 nM in the test with HS 578T breast; 1450 nM in the test on MDA-MB-435; 1010 nM in the test with PC-3 prostate; 1850 nM in the test on RXF 393 renal; 0.628 µM in the test on MOLT-4 leukemia. In addition, the GI50 is 1.53 µM with TK-10 renal and 739 nM with UACC-257 melanoma. Further, the TGI is 19.1 µM in the test with A498 renal; 9.59 µM with HS 578T breast; 6.5 µM in the test on PC-3 prostate; 8.88 µM with RXF 393 renal; 1.69 µM in the test on MOLT-4 leukemia; 12.2 µM with TK-10 renal. Moreover, the TGI with UACC-257 melanoma was found to be 2.73 µM.

For `Cc1c(C(N)=O)sc2nc(C)n(/N=c3\scc(-c4ccccc4)n3Cc3ccccc3)c(=O)c12`, the GI50 with A498 renal was 2530 nM; in the test with HS 578T breast, 3850 nM; in the test with MDA-MB-435, 2890 nM; with PC-3 prostate, 2150 nM; with HCT-15 colon it was 2640 nM; in the test on RPMI-8226 leukemia, 13.9 µM. Further, the GI50 in the test on MOLT-4 leukemia was 24.6 µM; in the test on TK-10 renal it was 3.78 µM; with UACC-257 melanoma, 3560 nM. In addition, the TGI was 8.97 µM with A498 renal; above 100 µM in the test on HS 578T breast; 12.5 µM in the test with MDA-MB-435; 8.31 µM with PC-3 prostate; above 100 µM in the test on HCT-15 colon; above 100 µM in the test with RPMI-8226 leukemia. The TGI with MOLT-4 leukemia was above 100 µM; with TK-10 renal, above 100 µM; in the test with UACC-257 melanoma it was 24.3 µM.

Regarding `COc1cc(C(=O)O[C@H](C(=O)NCCCCNC(=O)[C@@H](OC(=O)c2cc(OC)cc3c(C)cccc23)[C@]2(C)CO2)[C@]2(C)CO2)c2cccc(C)c2c1`, the GI50 in the test on A498 renal is 2460 nM; with HS 578T breast, 479 nM; in the test on MDA-MB-435 it was 144 nM; with PC-3 prostate, 114 nM; in the test on HCT-15 colon, 104 nM; in the test with RPMI-8226 leukemia, 0.195 µM. Further, the values for the GI50 in the test with MOLT-4 leukemia and with TK-10 renal were below 0.01 µM and 0.469 µM, respectively. The TGI was 5.16 µM in the test with A498 renal; above 100 µM with HS 578T breast; 0.61 µM with MDA-MB-435; 1.5 µM in the test with PC-3 prostate; 1.18 µM in the test on HCT-15 colon; 3.86 µM in the test with RPMI-8226 leukemia. The TGI in the test on MOLT-4 leukemia came to 0.676 µM; with TK-10 renal it was 1.36 µM; in the test on UACC-257 melanoma, 0.222 µM.

Turning to `S=C(SSC(=S)N1CCCCC1)N1CCCCC1`, the GI50 with HS 578T breast is 21000 nM; in the test on MDA-MB-435 it was 22000 nM; in the test on PC-3 prostate, 12300 nM; in the test with HCT-15 colon it was 16500 nM; in the test with RPMI-8226 leukemia, 12.9 µM; in the test on RXF 393 renal it was 14200 nM. The GI50 is 17.2 µM in the test on MOLT-4 leukemia, 22.9 µM in the test with TK-10 renal and 23600 nM in the test on UACC-257 melanoma. Moreover, the TGI was above 100 µM in the test with HS 578T breast; above 100 µM with MDA-MB-435; 51.4 µM in the test on PC-3 prostate; 66.8 µM in the test on HCT-15 colon; 40.2 µM in the test with RPMI-8226 leukemia; 35.8 µM with RXF 393 renal. For the same compound, the TGI with MOLT-4 leukemia was determined as 49.5 µM; in the test with TK-10 renal it was 82.2 µM; in the test on UACC-257 melanoma, 82.9 µM.

For `CCC(=O)Nc1nnc(Cc2ccc(OC)c(OC)c2)s1`, the GI50 in the test on A498 renal is above 100000 nM; in the test with HS 578T breast, above 100000 nM; with MDA-MB-435, above 100000 nM; with PC-3 prostate, above 100000 nM; in the test with HCT-15 colon, above 100000 nM; in the test with RPMI-8226 leukemia, above 100 µM. Also, the GI50 in the test with MOLT-4 leukemia was above 100 µM; in the test on TK-10 renal it was above 100 µM; in the test with UACC-257 melanoma, above 100000 nM. In addition, the TGI in the test with A498 renal, in the test on HS 578T breast, in the test on MDA-MB-435, in the test on PC-3 prostate, with HCT-15 colon and with RPMI-8226 leukemia was above 100 µM in each case. The TGI in the test with MOLT-4 leukemia, with TK-10 renal and in the test with UACC-257 melanoma was above 100 µM throughout.

Consider `COc1cc(-c2ccc[nH]2)[nH]c1/C=C1\N=C(C)C(CC(=O)OCC(C)(C)C)=C1C`, for which the GI50 in the test with A498 renal is 163 nM; in the test with HS 578T breast, 256 nM; in the test with MDA-MB-435 it was 282 nM; in the test with PC-3 prostate it was 100 nM; in the test with HCT-15 colon, 211 nM; in the test with RXF 393 renal, 258 nM. The figures for the GI50 in the test on MOLT-4 leukemia, in the test with TK-10 renal and in the test on UACC-257 melanoma were 0.242 µM, 0.326 µM and 339 nM, respectively. The TGI came to 0.867 µM with A498 renal; 1.91 µM in the test on HS 578T breast; 1.2 µM with MDA-MB-435; 1.65 µM with PC-3 prostate; 1.12 µM in the test with HCT-15 colon; 1.21 µM in the test on RXF 393 renal. The TGI with MOLT-4 leukemia turned out to be 1.32 µM; in the test on TK-10 renal, 1.19 µM; with UACC-257 melanoma it was 1.52 µM.

As for `Cc1ccc(-c2nc3sc(C)cn3c2/C=C2\C(=O)Nc3ccc(Cl)cc32)cc1`, the GI50 in the test with A498 renal was 16300 nM; in the test with HS 578T breast, 8020 nM; in the test with MDA-MB-435, 18000 nM; with PC-3 prostate it was 22300 nM; in the test with HCT-15 colon it was 17200 nM; in the test on RPMI-8226 leukemia it was 22.4 µM. The GI50 in the test on MOLT-4 leukemia was 26.2 µM; with TK-10 renal it was 9.28 µM; in the test with UACC-257 melanoma, 16600 nM. In addition, the TGI was determined as 36 µM in the test with A498 renal; 73.7 µM in the test with HS 578T breast; 34.8 µM in the test on MDA-MB-435; 54.4 µM in the test on PC-3 prostate; 34.4 µM in the test with HCT-15 colon; 58.6 µM in the test with RPMI-8226 leukemia. Moreover, the values for the TGI in the test with MOLT-4 leukemia, in the test with TK-10 renal and with UACC-257 melanoma were 82.7 µM, 24.7 µM and 44.9 µM, respectively.

For `C=CCSC(C)=O`, the TGI in the test with A498 renal, in the test with HS 578T breast, in the test with MDA-MB-435, in the test with PC-3 prostate, with HCT-15 colon and in the test on RPMI-8226 leukemia was above 100 µM each time. In the test with TK-10 renal, this compound showed a TGI above 100 µM.
